“Also recorded” adds a separate entry of the source.
Tests used:
parental KBM7 cells = assay: Luciferase-based ATP assay, parental KBM7 cells; format: cell-based, human; details: 30 min treatment
Description: The bioenergetic profiles of KBM7 and MDA-MB-231 cells in response to 3-BrPA were determined using a Seahorse Bioscience XF24 Extracellular Flux Analyzer (Seahorse Bioscience). For the indicated experiments, 250,000 KBM7 or 40,000 MDA-MB-231 cells seeded in Seahorse tissue culture plates using unbuffered RPMI (10 mM Glucose). KBM7 cells were attached to the plates using CellTak (Clontech) one hour prior to the start of the experiment. For AUC (area under the curve) OCR and ECAR measurements, three consecutive readings were performed for each cell line. For experiments where 3-BrPA is used, after 3 consecutive readings, 50 μM 3-BrPA was injected through port A and ECAR and OCAR levels were measured. Lactate production was measured as described previously^50. For ATP assays, 20,000 cells were seeded and treated for 30 min with indicated amounts of 3-BrPA and ATP levels were determined using a luciferase-based assay (Promega). For metabolite measurements, 10 million wild type and MCT1 null KBM7 cells were cultured for 1 hour in presence of 50 μM 3-BrPA before metabolite extraction. Then, cells were rapidly washed three times with cold PBS, and then metabolites were extracted by addition of 80% ice-cold methanol followed after incubation on dry ice for 15 min. Endogenous metabolite profiles were obtained using LC-MS as described^51. Metabolite levels (n=3) were normalized to cell number.

[1] = test system: MDA-MB-231 cells stably expressing MCT1; assay: Subcutaneous MDA-MB-231 xenografts in nude mice; format: in vivo; details: tumors with forced MCT1 expression vs untreated or GFP-expressing, 8 mg/kg, 3 weeks
Description: All animal studies and procedures were approved by the MIT Institutional Animal Care and Use Committee. 6-10 week old nude mice (Taconic) were used for generating all xenografts. In subcutaneous xenografts, mice were injected at two sites in the dorsal region, under isofluorane anesthesia with 100 μl/injection of tumor cell suspension in RPMI with 20% matrigel. 2.5 million MDA-MB-231 cells were injected. After 2 weeks, tumors were measured and mice were separated for PBS and 3-BrPA treatment (8 mg/kg). After 3 weeks, tumors were harvested, their dimensions were measured with a caliper and tumor volume estimated according to the formula: (0.5*W*L*L). Tumors were fixed in formalin for later processing.
To test if MCT1 expression can affect the sensitivity of established tumors to 3-BrPA, parental MDA-MB-231 cells, which express low levels of MCT1 (Supplemental FIG. 4), were injected subcutaneously into the left flanks of Nude mice, while MDA-MB-231 cells stably expressing MCT1 were injected into the contralateral flanks of the same animals. We allowed palpable subcutaneous tumors to form for 2 weeks before beginning 3-BrPA administration.

MCT1-null cells = assay: 14C-3-BrPA uptake assay, MCT1-null KBM7 cells; format: cell-based, human; details: MCT1-null compared to parental KBM7 cells
Description: (§1) Wild type KBM7 or MCT1-null cells were seeded in HBSS and exposed for up to 20 minutes to 100 μM ^14C-labeled 3-BrPA (6.8 mCi/mmole) (Moravek) with or without competitor molecules like 3-BrPA, Pyruvate, L-Lactate and D-Lactate. Cells were washed with cold HBSS, lysed in a NaOH buffer, and uptake measured using a liquid scintillation counter.

KBM7 cells = assay: Cell survival assay, wild type (parental) KBM7 cells; format: cell-based, human; details: 50 μM, 3 days of treatment
Description: A haploid cell genetic screen with 3-BrPA was performed using 100 million mutagenized KBM7 cells as described previously^29. Mutagenized haploid KBM-7 cells were exposed to 50 μM 3-BrPA for 3 weeks. Surviving clones were harvested and genomic DNA was isolated and insertions were amplified. The sequences flanking retroviral insertion sites were mapped to the human genome using inverse PCR followed by Ilium in a sequencing. Genomic regions with a high density of insertions were identified using the proximity index for a given insertion. Additionally, the statistical enrichment of insertions at a given locus in the selected population was calculated by comparing the number of inactivating insertions to those in the untreated control dataset via a Fisher's Exact Test. Individual clones were isolated among 50 different clones and genomic DNA for individually selected clones were isolated using a genomic DNA isolation kit (Qiagen). Genomic insertions were identified by inverse PCR and subsequent sequencing as described previously^24.
Cell lines (5,000-20,000) were seeded in 96-well plates and treated with indicated amounts of 3-BrPA. After 3 days of treatment, CellTiter-Glo (Promega) and/or CyQuant (Invitrogen) were used to measure survival percentage for each concentration compared to untreated cells. […]

BT-20 cells = assay: Cell survival assay, BT-20; format: cell-based, human
Description: Cell lines (5,000-20,000) were seeded in 96-well plates and treated with indicated amounts of 3-BrPA. After 3 days of treatment, CellTiter-Glo (Promega) and/or CyQuant (Invitrogen) were used to measure survival percentage for each concentration compared to untreated cells. FACS analysis with Annexin V and 7AAD staining was performed according to manufacturer's manual (BD Pharmingen).

MCT1 = target: T1, MCT1 (Homo sapiens, UniProt P53985); assay: 14C-3-BrPA uptake assay, wild type KBM7 cells; format: cell-based
T1 construct: endogenous in cells; host or cells: wild type KBM7 cells (near-haploid human cell line)
T1 sequence (P53985 1-500): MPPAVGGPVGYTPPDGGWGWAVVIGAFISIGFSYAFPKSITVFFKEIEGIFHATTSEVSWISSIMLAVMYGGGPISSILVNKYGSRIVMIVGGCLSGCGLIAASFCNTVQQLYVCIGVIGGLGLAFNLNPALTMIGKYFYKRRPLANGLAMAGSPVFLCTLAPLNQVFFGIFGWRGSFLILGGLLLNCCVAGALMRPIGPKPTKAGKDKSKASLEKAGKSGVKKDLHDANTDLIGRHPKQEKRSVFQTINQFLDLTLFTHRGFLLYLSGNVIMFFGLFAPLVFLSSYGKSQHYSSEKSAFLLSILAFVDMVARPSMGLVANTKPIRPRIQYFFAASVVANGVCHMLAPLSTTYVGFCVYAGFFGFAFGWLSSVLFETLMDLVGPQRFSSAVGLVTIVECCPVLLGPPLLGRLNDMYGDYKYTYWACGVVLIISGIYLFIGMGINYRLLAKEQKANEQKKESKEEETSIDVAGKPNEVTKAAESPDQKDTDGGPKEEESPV
T1 sequence (P35613 140-385 partner limits assumed): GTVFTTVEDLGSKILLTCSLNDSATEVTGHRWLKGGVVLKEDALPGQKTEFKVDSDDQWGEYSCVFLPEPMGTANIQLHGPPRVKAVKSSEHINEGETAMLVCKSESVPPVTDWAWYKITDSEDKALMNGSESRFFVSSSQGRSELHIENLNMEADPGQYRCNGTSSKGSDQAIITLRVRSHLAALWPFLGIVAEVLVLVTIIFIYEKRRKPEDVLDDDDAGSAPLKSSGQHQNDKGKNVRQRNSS
Description: as §1

O=C(O)C(=O)CBr [3-BrPA, 3-bromopyruvic acid]
total ATP levels (parental KBM7 cells): substantial decrease | tumor size after 3-BrPA treatment [1]: significantly smaller | uptake of 14C-labeled 3-BrPA (MCT1-null cells): did not take up | sensitivity to 3-BrPA (cell death) (KBM7 cells): induce cell death accompanied by caspase-3 activation; also recorded: sensitive | sensitivity to 3-BrPA (BT-20 cells; BT-20, increased MCT1 level): sensitive | sensitivity to 3-BrPA with partial suppression of MCT1 by RNAi (BT-20 cells; BT-20 expressing shRNAs targeting MCT1): sufficient to confer resistance | 3-BrPA uptake on reduction in extracellular pH (MCT1; wild type KBM7, radiolabeled 3-BrPA, 20 minutes): enhanced | competition with the uptake of radiolabeled 3-BrPA (MCT1; wild type KBM7 in HBSS, up to 20 minutes, unlabeled competitor): effectively competed
